Measurements as given in US4308210A, “Nanaomycin B and therapeutic compositions containing same” (The Kitasato Institute, priority 1976, dated 1981).
≈ marks a conversion by molar mass, not a printed value.

Legend:
Format in all cases: cell-based
Trichophyton violaceum = assay: Antimicrobial spectrum, MIC, potato agar; settings: 96 h, potato agar (pH 6.4, 4 days, 27° C.)
Sarcina lutea PCI 1001 = assay: Antimicrobial spectrum, MIC, nutrient agar; settings: Micrococcus luteus, PCI1001, 48 h; nutrient agar (pH 7.0, 2 days, 37° C.)
Saccharomyces sake = assay: Antimicrobial spectrum, MIC, potato agar; settings: 96 h, potato agar (pH 6.4, 4 days, 27° C.)
Protocol: (§1) P potato agar (pH 6.4, 4 days, 27° C.)
(§2) MIC Minimal inhibitory concentration

[1] = tested on: Aspergillus niger ATCC 6275; assay: Antimicrobial spectrum, MIC, potato agar; settings: ATCC6275, 96 h, potato agar (pH 6.4, 4 days, 27° C.)
Protocol: as §1, §2

Microsporum gypseum 704 = assay: Antimicrobial spectrum, MIC, potato agar; settings: Nannizzia gypsea, 704, 96 h; potato agar (pH 6.4, 4 days, 27° C.)
Protocol: as §1, §2

[2] = tested on: fungi (Test Organisms of Table 4); assay: Antifungal activity, comparison in words (Table 4)

CC1OC(CC(=O)O)CC2C(=O)c3cccc(O)c3C(=O)C12O (centres unmarked) [Nanaomycin B]
MIC (Trichophyton violaceum): 3.1 µg/mL (≈ 9.68 µM) | MIC (Sarcina lutea PCI 1001): 2 µg/mL (≈ 6.24 µM) | MIC (Saccharomyces sake): 62.5 µg/mL (≈ 195 µM) | MIC [1]: 62.5 µg/mL (≈ 195 µM) | MIC (Microsporum gypseum 704): 12.5 µg/mL (≈ 39 µM) | antifungal activity compared with deoxyfrenolicin [2]: slightly inferior | antifungal activity compared with ethylkalafunginate (ethylkalamycinate) [2]: superior | antifungal activity when the pH of the medium is higher than 6.4 ([2]; pH of medium higher than 6.4): stronger antifungal activity
